What all share (type): biochemical
One test has as its target T1, HaCHI1 (Haplopteris amboinensis, UniProt A0A4Y6I1E6).
T1 sequence (A0A4Y6I1E6 1-214): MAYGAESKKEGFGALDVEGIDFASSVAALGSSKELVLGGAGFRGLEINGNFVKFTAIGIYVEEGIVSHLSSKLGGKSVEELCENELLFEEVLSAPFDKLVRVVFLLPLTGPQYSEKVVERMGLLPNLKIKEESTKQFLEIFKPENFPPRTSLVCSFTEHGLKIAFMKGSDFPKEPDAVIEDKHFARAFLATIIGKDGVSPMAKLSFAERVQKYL
The test is described as follows: HPLC product analysis.

A further test has as its target T2, AdcCHI1 (Adiantum caudatum, UniProt A0A4Y6I1H0).
T2 sequence (A0A4Y6I1H0 1-214): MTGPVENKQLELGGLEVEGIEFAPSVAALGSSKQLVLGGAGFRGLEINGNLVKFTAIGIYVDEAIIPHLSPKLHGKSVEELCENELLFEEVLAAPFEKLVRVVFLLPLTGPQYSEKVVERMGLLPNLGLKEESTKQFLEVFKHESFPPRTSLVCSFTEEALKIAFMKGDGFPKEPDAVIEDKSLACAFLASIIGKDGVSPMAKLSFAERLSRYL
The test is described as follows: HPLC product analysis.

For the next test, the target named is T3, PvCHI1 (Pteris vittata, UniProt A0A4Y6I0P5).
T3 sequence (A0A4Y6I0P5 1-214): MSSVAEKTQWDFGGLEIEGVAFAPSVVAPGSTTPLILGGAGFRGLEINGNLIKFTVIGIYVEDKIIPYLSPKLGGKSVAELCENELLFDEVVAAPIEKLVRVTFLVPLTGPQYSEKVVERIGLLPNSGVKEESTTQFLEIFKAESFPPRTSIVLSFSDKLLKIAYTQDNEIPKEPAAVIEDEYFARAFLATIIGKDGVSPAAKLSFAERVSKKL
Description: HPLC product analysis.

Another test deals with T4, LoCHS2 (Lindsaea orbiculata, UniProt A0A4Y6I0P0).
T4 sequence (A0A4Y6I0P0 1-439): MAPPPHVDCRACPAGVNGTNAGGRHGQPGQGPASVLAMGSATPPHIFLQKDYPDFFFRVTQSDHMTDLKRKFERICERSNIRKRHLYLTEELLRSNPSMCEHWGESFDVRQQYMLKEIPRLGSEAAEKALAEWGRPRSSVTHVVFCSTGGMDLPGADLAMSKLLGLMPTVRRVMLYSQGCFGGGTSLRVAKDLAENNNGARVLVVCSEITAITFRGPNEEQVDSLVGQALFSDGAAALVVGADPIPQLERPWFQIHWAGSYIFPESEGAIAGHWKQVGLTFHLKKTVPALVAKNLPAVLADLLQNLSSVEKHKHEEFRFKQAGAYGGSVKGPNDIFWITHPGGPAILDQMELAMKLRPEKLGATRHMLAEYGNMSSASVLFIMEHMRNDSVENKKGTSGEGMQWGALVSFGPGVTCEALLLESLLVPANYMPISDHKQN
Description: LC-MS product analysis. The conditions noted are these: 100 μM malonyl-CoA, 50 mM potassium phosphate pH 6.5, 35 °C, no CHIL.

The next test addresses T5, LoCHS1 (Lindsaea orbiculata, UniProt A0A4Y6I0N8).
T5 sequence (A0A4Y6I0N8 1-405): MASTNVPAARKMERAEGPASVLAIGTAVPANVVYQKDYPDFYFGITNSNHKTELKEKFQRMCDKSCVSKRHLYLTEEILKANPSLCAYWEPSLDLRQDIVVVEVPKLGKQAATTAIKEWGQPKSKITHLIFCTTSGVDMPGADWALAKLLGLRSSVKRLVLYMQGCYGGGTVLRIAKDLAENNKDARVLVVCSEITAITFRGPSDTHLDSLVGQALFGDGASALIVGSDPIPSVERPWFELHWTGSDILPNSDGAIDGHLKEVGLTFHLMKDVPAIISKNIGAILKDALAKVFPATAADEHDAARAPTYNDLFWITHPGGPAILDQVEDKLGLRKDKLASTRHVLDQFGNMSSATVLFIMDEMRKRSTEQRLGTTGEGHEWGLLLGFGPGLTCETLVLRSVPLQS
Description: LC-MS product analysis. The conditions noted are these: 100 μM malonyl-CoA, 50 mM potassium phosphate pH 6.5, 35 °C, no CHIL.

The mark [1] stands for this setting: 50 μM substrate, 50 mM Tris-HCl pH 7.5, 25 °C.

Each structure is given as a SMILES string.

As for `O=C(/C=C/c1ccc(O)cc1)c1ccc(O)cc1O` [isoliquiritigenin], the HPLC product analysis result on HaCHI1 (setting [1]) was “AcCHI1, AdcCHI1, AcaCHI1, HaCHI1, and PvCHI1 were all able to catalyze type II-specific substrates”; at AdcCHI1 (setting [1]), “AcCHI1, AdcCHI1, AcaCHI1, HaCHI1, and PvCHI1 were all able to catalyze type II-specific substrates”; on PvCHI1 (setting [1]) it was “AcCHI1, AdcCHI1, AcaCHI1, HaCHI1, and PvCHI1 were all able to catalyze type II-specific substrates”.

`O=C(/C=C/c1ccc(O)cc1)c1c(O)cc(O)cc1O` [naringenin chalcone]: the HPLC product analysis result on HaCHI1 (room temperature, 1 min) is “the other five (AcCHI1, AcaCHI1, AdcCHI1, HaCHI1, and PvCHI1) exhibited slight type II CHI activity”; on AdcCHI1 (room temperature, 1 min), “the other five (AcCHI1, AcaCHI1, AdcCHI1, HaCHI1, and PvCHI1) exhibited slight type II CHI activity”; on PvCHI1 (room temperature, 1 min), “the other five (AcCHI1, AcaCHI1, AdcCHI1, HaCHI1, and PvCHI1) exhibited slight type II CHI activity”.

`CC(C)(COP(=O)(O)OP(=O)(O)OC[C@H]1O[C@@H](n2cnc3c(N)ncnc32)[C@H](O)[C@@H]1OP(=O)(O)O)[C@@H](O)C(=O)NCCC(=O)NCCSC(=O)/C=C/c1ccc(O)cc1` [p-coumaroyl-CoA]: the LC-MS product analysis result on LoCHS2 was “reactions were provided with p-coumaroyl-CoA and malonyl-CoA”; at LoCHS1 it was “reactions were provided with p-coumaroyl-CoA and malonyl-CoA”.

These data come from PMC6913697 (Journal of Experimental Botany, 2019).
